The source of these data is PMC8388125, “Kinetic and Structural Characterization of the Self-Labeling Protein Tags HaloTag7, SNAP-tag, and CLIP-tag” (Biochemistry, 2021).

In one test the target is T1, SNAP-tag (SNAP) (Homo sapiens, UniProt P16455, A127T/A154D/C150Q/C62A/G131K/G132T/G153L/K125A/K32I/L33F/M134L/N157G/Q115S/Q116H/R128A/R135S/S151G/S152D/S159E).
T1 construct: made in house; host or cells: E. coli BL21(DE3)-pLysS
T1 sequence (P16455 1-182 K32I/L33F/C62A/Q115S/Q116H/K125A/A127T/R128A/G131K/G132T/M134L/R135S/C150Q/S151G/S152D/G153L/A154D/N157G/S159E limits assumed): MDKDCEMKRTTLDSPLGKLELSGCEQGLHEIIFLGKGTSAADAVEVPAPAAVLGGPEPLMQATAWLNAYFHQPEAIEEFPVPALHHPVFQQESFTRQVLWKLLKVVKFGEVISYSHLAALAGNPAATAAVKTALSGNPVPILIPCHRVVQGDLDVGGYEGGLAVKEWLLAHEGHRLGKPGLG
The test can be described thus: SNAP competitive labeling kinetics against BG-Alexa488. In kind it is biochemical. As to conditions: nonfluorescent substrates, competition with BG-Alexa488. As for the experimental part: Competitive kinetics were measured by recording FP over time using a microplate reader in a manner analogous to that for HT7 competition kinetics described above using 100 nM BG-Alexa488 as the fluorescent substrate in SNAP-FP buffer.
(§1) Data were fitted to a simplified kinetic competition model (eqs 19 and 20) described by differential eqs 21–25 using DynaFit. The dead time of the measurements and baseline FP value were put in as fixed parameters. Standard deviations (normal distribution verified) and confidence intervals of fitted parameters were estimated with the Monte Carlo method with standard settings (N = 1000, 5% worst fits discarded). [drawing 19] 19 [drawing 20] 20 where P is the SLP protein, S is the fluorescent SLP substrate, I is the nonfluorescent SLP substrate (inhibitor), PS is the protein–fluorescent substrate conjugate, and PI is the protein–nonfluorescent substrate conjugate. [drawing 21] 21 [drawing 22] 22 [drawing 23] 23 [drawing 24] 24 [drawing 25] 25
Regarding `Nc1nc(OCc2ccccc2)c2nc[nH]c2n1` [BG, benzylguanine], the “kapp (value ± standard deviation)” value was “(1.87 ± 0.05) × 10^4 M^–1 s^–1”. The same measure, in the same setting: to `CC(=O)NCc1ccc(COc2nc(N)nc3[nH]cnc23)cc1` [BG-Ac] belongs “(1.48 ± 0.05) × 10^4 M^–1 s^–1”; to `Nc1nc(OCc2ccc(CNC(=O)OC[C@@H]3[C@@H]4CCC#CCC[C@@H]43)cc2)c2nc[nH]c2n1` [BG-BCN], “(3.88 ± 0.07) × 10^4 M^–1 s^–1”. Turning to `[N-]=[N+]=NCC(=O)NCc1ccc(COc2nc(N)nc3[nH]cnc23)cc1` [BG-N3], the “kapp (value ± standard deviation)” value was “(3.70 ± 0.09) × 10^4 M^–1 s^–1”.

Turning to `Nc1nc(OCc2ccc(CNC(=O)C3CC4C=CC3C4)cc2)c2nc[nH]c2n1` (stereo not shown) [BG-Nor1], the “kapp (value ± standard deviation)” value is given as “(7.34 ± 0.01) × 10^4 M^–1 s^–1”. Same read-out and setting: the entry for `[N-]=[N+]=Nc1ccc(C(=O)NCc2ccc(COc3nc(N)nc4[nH]cnc34)cc2)cc1` [BG-PhN3] is “(4.78 ± 0.09) × 10^4 M^–1 s^–1”. Turning to `Nc1nc(OCc2ccc(CNC(=O)OC3C#CCCCCC3)cc2)c2nc[nH]c2n1` (stereo not shown) [BG-SCO], the “kapp (value ± standard deviation)” value is “(3.75 ± 0.06) × 10^4 M^–1 s^–1”. For `Cc1nnc(-c2ccc(CC(=O)NCc3ccc(COc4nc(N)nc5[nH]cnc45)cc3)cc2)nn1` [BG-Tz], the “kapp (value ± standard deviation)” value is “(3.94 ± 0.08) × 10^4 M^–1 s^–1”. As to `C=Cc1ccc(C(=O)NCc2ccc(COc3nc(N)nc4[nH]cnc34)cc2)cc1` [BG-Vbn], the “kapp (value ± standard deviation)” value is “(3.84 ± 0.07) × 10^4 M^–1 s^–1”. For `Nc1nc(Cl)cc(OCc2ccc(CNC(=O)OC[C@@H]3[C@@H]4CCC#CCC[C@@H]43)cc2)n1` [CP-BCN], the “kapp (value ± standard deviation)” value is “(3.34 ± 0.31) × 10^3 M^–1 s^–1”.

`[N-]=[N+]=NCC(=O)NCc1ccc(COc2cc(Cl)nc(N)n2)cc1` [CP-N3]: the “kapp (value ± standard deviation)” value is on record as “(6.36 ± 0.41) × 10^3 M^–1 s^–1”.

For the compound `Nc1nc(Cl)cc(OCc2ccc(CNC(=O)C3CC4C=CC3C4)cc2)n1` (stereo not shown) [CP-Nor1], the “kapp (value ± standard deviation)” value is reported as “(1.77 ± 0.04) × 10^4 M^–1 s^–1”. Regarding `[N-]=[N+]=Nc1ccc(C(=O)NCc2ccc(COc3cc(Cl)nc(N)n3)cc2)cc1` [CP-PhN3], the “kapp (value ± standard deviation)” value was “(2.91 ± 0.40) × 10^3 M^–1 s^–1”. For `Nc1nc(Cl)cc(OCc2ccc(CNC(=O)OC3C#CCCCCC3)cc2)n1` (stereo not shown) [CP-SCO], the “kapp (value ± standard deviation)” value is “(4.22 ± 0.61) × 10^3 M^–1 s^–1”.

As for `C=Cc1ccc(C(=O)NCc2ccc(COc3cc(Cl)nc(N)n3)cc2)cc1` [CP-Vbn], the “kapp (value ± standard deviation)” value was “(5.50 ± 0.45) × 10^3 M^–1 s^–1”.

Another test deals with T2, HaloTag7 (HT7) (Rhodococcus sp., UniProt P59336, A155T/A167V/A224E/C128F/C176G/D78G/E160K/E257K/G292T/H272N/K175M/K195N/L47V/L88M/N227D/P291S/S2A/S58T/T264A/V172T/Y273L/Y87F).
T2 construct: made in house; host or cells: E. coli BL21(DE3)-pLysS
T2 sequence (P59336 other isoform, or with tags, fused parts or gaps with the stated changes): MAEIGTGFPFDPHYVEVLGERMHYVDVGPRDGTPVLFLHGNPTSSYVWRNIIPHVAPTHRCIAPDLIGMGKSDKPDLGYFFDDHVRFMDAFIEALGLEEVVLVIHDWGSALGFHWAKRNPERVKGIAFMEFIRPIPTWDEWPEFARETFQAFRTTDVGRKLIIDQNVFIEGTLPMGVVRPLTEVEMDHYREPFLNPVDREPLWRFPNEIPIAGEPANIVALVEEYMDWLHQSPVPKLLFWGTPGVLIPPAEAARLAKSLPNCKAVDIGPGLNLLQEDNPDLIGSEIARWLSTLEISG
The test can be described thus: HT7 labeling kinetics via stopped flow (fluorescence anisotropy). In kind it is biochemical. As to conditions: HT7. As for the experimental part:
Labeling kinetics of HT7 with CA-TMR, CA-JF549, CA-CPY, CA-LIVE580, and CA-JF669 and labeling kinetics of HOB with CA-TMR were measured by recording fluorescence anisotropy changes over time using a BioLogic SFM-400 stopped-flow instrument (BioLogic Science Instruments, Claix, France) in a single-mixing configuration at 37 °C. HT7 protein and substrates in activity buffer were mixed in a 1:1 stoichiometry to reach a recordable speed for these fast reactions and to increase the information content of the traces. Concentrations were varied from 0.125 to 1 μM. The anisotropy of the free substrate was measured to obtain a baseline.
Kinetic stopped-flow data were preprocessed using a custom R script.[36],[37] Recorded pretrigger time points were removed, and time points were adjusted to start at time zero. Values from replicates were averaged. The anisotropy of the free dye was calculated by averaging anisotropy values of the baseline measurements. Preprocessed data were fitted to a kinetic model (eqs 5 and 6) described by differential eqs 7–10 using the DynaFit software.[38] The anisotropy of the free dye and the mixing delay of the stopped-flow machine were set as fixed offset and delay parameters in DynaFit. It was assumed that the protein substrate complex and the reacted product are contributing equally to the anisotropy signal. […] Standard deviations (normal distribution verified) and confidence intervals of fitted parameters were estimated with the Monte Carlo method[39] with standard settings (N = 1000, 5% worst fits discarded). In the case of SNAP kinetics with BG-TMR, the substrate concentration was fitted by DynaFit to rule out quantification errors of the BG-quenched fluorophore. Accurate fitting of the concentration was ensured by including conditions in which protein is limiting and no maximum FP value was reached.
Consider `CN(CCCC(=O)NCCOCCOCCOCCNC(=O)CCCC[C@H]1SC[C@H]2NC(=O)N[C@H]21)c1ccc2c(-c3cc(C(=O)NCCOCCOCCCCCCCl)ccc3C(=O)[O-])c3ccc(=[N+](C)C)cc-3oc2c1` [CA-TMR-biotin], for which the “fold increase in labeling kinetics relative to CA-PEG-biotin” value is listed as more than 500 fold.

The same test, now with this note: HT7, stopped flow, model 2.
For the compound `C[Si]1(C)C2=CC(=[N+]3CCC3)C=CC2=C(c2c(F)c(C(=O)NCCOCCOCCCCCCCl)c(F)c(F)c2C(=O)[O-])c2ccc(N3CCC3)cc21` [CA-JF669], the “k2 (± S.D.)” value is 6.94 (± 0.47) s-1. As to `CN(CCCC(=O)NCCOCCOCCOCCNC(=O)CCCC[C@H]1SC[C@H]2NC(=O)N[C@H]21)c1ccc2c(-c3cc(C(=O)NCCOCCOCCCCCCCl)ccc3C(=O)[O-])c3ccc(=[N+](C)C)cc-3oc2c1` [CA-TMR-biotin], the “k2 (± S.D.)” value is on record as 8.24 (± 0.28) s-1.

Another test deals with T1, SNAP-tag (SNAP). The test can be described thus: SNAP labeling kinetics via microplate reader (FP over time). To be noted: SNAP, plate reader, kinetic model 1. In kind it is biochemical. The method, then: Labeling kinetics of SNAP and CLIP substrates were measured by recording FP over time using a microplate reader in a manner analogous to that of HT7 labeling kinetics described above with the following changes. The fluorescent substrate concentration was fixed to 20 nM, and protein concentrations were varied from 15 to 900 nM. Measurements were performed in SNAP-FP buffer.
Kinetic data from microplate reader assays were fitted to a simplified kinetic model (eq 13) described by differential eqs 14–16 using DynaFit. The dead time of the measurements and baseline FP value were put in as fixed parameters. Standard deviations (normal distribution verified) and confidence intervals of fitted parameters were estimated with the Monte Carlo method with standard settings (N = 1000, 5% worst fits discarded). In the case of BG, CP, and BC kinetics, the substrate concentration was fitted by DynaFit to rule out quantification errors of the BG, CP, or BC fluorophores. Accurate fitting of the concentration was ensured by including conditions under which protein is limiting and no maximum FP value was reached.
Turning to `CN(C)c1ccc2c(c1)C(C)(C)C1=CC(=[N+](C)C)C=CC1=C2c1cc(C(=O)NCc2ccc(COc3nc(N)nc4[nH]cnc34)cc2)ccc1C(=O)[O-]` [BG-CPY], the “kapp (value ± standard deviation)” value is recorded as “(2.17 ± 0.01) × 10^5 M^–1 s^–1”.

Staying with this test, now noted: SNAP, plate reader, third kinetic model with slow aging event (*).
As for `CN(C)c1ccc2c(c1)C(C)(C)C1=CC(=[N+](C)C)C=CC1=C2c1cc(C(=O)NCc2ccc(COc3cc(Cl)nc(N)n3)cc2)ccc1C(=O)[O-]` [CP-CPY], the “kapp (value ± standard deviation)” value was “(1.59 ± 0.01) × 10^4 ^* M^–1 s^–1”.

The next test addresses T2, HaloTag7 (HT7). As to the kind of experiment: HT7 competitive labeling kinetics against CA-Alexa488. In kind it is biochemical. As to conditions: HT7, nonfluorescent substrates, competition with CA-Alexa488, 37 °C. The method, then:
Competitive kinetics were measured by recording FP over time using a microplate reader (Spark20M, Tecan). The final concentrations of CA-Alexa488 (50 nM) and HT7 protein (200 nM) remained constant with varying concentrations of nonfluorescent substrates (0–1 μM) in activity buffer supplemented with 0.5 g/L BSA. Assays were performed in black nonbinding flat bottom 96-well plates with a final reaction volume of 200 μL. Labeling reactions were started by adding the HT7 protein to wells containing CA-Alexa488 and nonfluorescent substrates using an electronic 96-channel pipettor (Integra Bioscience Corp., Hudson, NH). The FP of free CA-Alexa488 was measured to obtain a baseline.
as §1
Turning to `O=C(NCCOCCOCCCCCCCl)OC[C@@H]1[C@@H]2CCC#CCC[C@@H]21` [CA-BCN], the “kapp (value ± standard deviation)” value is “(2.04 ± 0.03) × 10^5 M^–1 s^–1”. On the same count and under the same terms, to `[N-]=[N+]=NCC(=O)NCCOCCOCCCCCCCl` [CA-N3] belongs “(6.00 ± 0.06) × 10^3 M^–1 s^–1”. Consider `O=C(NCCOCCOCCCCCCCl)C1CC2C=CC1C2` (stereo not shown) [CA-Nor1], for which the “kapp (value ± standard deviation)” value was “(6.68 ± 0.06) × 10^3 M^–1 s^–1”. Same read-out and setting: the entry for `O=C(CC1CC2C=CC1C2)NCCOCCOCCCCCCCl` (stereo not shown) [CA-Nor2] is “(6.15 ± 0.07) × 10^3 M^–1 s^–1”; for `[N-]=[N+]=Nc1ccc(C(=O)NCCOCCOCCCCCCCl)cc1` [CA-PhN3] it is “(2.14 ± 0.02) × 10^4 M^–1 s^–1”. Regarding `O=C(NCCOCCOCCCCCCCl)OC1C#CCCCCC1` (stereo not shown) [CA-SCO], the “kapp (value ± standard deviation)” value is recorded as “(2.52 ± 0.05) × 10^5 M^–1 s^–1”. As to `Cc1nnc(-c2ccc(CC(=O)NCCOCCOCCCCCCCl)cc2)nn1` [CA-Tz], the “kapp (value ± standard deviation)” value was “(3.13 ± 0.03) × 10^4 M^–1 s^–1”. `C=Cc1ccc(C(=O)NCCOCCOCCCCCCCl)cc1` [CA-Vbn]: the “kapp (value ± standard deviation)” value is reported as “(8.68 ± 0.07) × 10^3 M^–1 s^–1”.
